Results reported in the NIST ThermoML archive (doi:10.1021/je900916e).
Numbers after ± are expanded uncertainties.

Assay: cn = amount concentration of the nth substance listed, in mol/dm3
Conditions: 101 kPa, Liquid, Advanced Conductivity Orion 162A

CC[N+](CC)(CC)CC.O=C([O-])C(F)(F)C(F)(F)C(F)(F)C(F)(F)C(F)(F)C(F)(F)C(F)(F)F [tetraethylammonium perfluorooctanoate] + O
Conditions | electrical conductivity [S/m]
288.15 K, c1 = 0.000744 | 0.00332 ± 7e-05
288.15 K, c1 = 0.001478 | 0.00651 ± 0.00013
288.15 K, c1 = 0.0022 | 0.0094 ± 0.00019
288.15 K, c1 = 0.002913 | 0.0122 ± 0.00024
288.15 K, c1 = 0.003614 | 0.015 ± 0.0003
288.15 K, c1 = 0.004306 | 0.0176 ± 0.00035
288.15 K, c1 = 0.005101 | 0.0205 ± 0.00041
288.15 K, c1 = 0.005882 | 0.0233 ± 0.00047
288.15 K, c1 = 0.006651 | 0.0258 ± 0.00052
288.15 K, c1 = 0.007407 | 0.0275 ± 0.00055
288.15 K, c1 = 0.008152 | 0.0283 ± 0.00057
288.15 K, c1 = 0.009091 | 0.0292 ± 0.00058
288.15 K, c1 = 0.01011 | 0.0301 ± 0.0006
288.15 K, c1 = 0.01131 | 0.0311 ± 0.00062
288.15 K, c1 = 0.01266 | 0.0322 ± 0.00064
288.15 K, c1 = 0.01398 | 0.0332 ± 0.00066
288.15 K, c1 = 0.01543 | 0.0343 ± 0.00069
293.15 K, c1 = 0.000662 | 0.00339 ± 7e-05
293.15 K, c1 = 0.001316 | 0.00649 ± 0.00013
293.15 K, c1 = 0.001961 | 0.00944 ± 0.00019
293.15 K, c1 = 0.002597 | 0.0123 ± 0.00025
293.15 K, c1 = 0.003226 | 0.0149 ± 0.0003
293.15 K, c1 = 0.003846 | 0.0176 ± 0.00035
293.15 K, c1 = 0.004458 | 0.0201 ± 0.0004
293.15 K, c1 = 0.005063 | 0.0226 ± 0.00045
293.15 K, c1 = 0.00566 | 0.0249 ± 0.0005
293.15 K, c1 = 0.00625 | 0.027 ± 0.00054
293.15 K, c1 = 0.006832 | 0.029 ± 0.00058
293.15 K, c1 = 0.007407 | 0.0301 ± 0.0006
293.15 K, c1 = 0.007975 | 0.0309 ± 0.00062
293.15 K, c1 = 0.008536 | 0.0316 ± 0.00063
293.15 K, c1 = 0.00942 | 0.0325 ± 0.00065
293.15 K, c1 = 0.01029 | 0.0334 ± 0.00067
293.15 K, c1 = 0.01114 | 0.0342 ± 0.00068
293.15 K, c1 = 0.01218 | 0.0351 ± 0.0007
293.15 K, c1 = 0.01319 | 0.036 ± 0.00072
293.15 K, c1 = 0.01419 | 0.0369 ± 0.00074
293.15 K, c1 = 0.01516 | 0.0378 ± 0.00076
298.15 K, c1 = 0.000662 | 0.00389 ± 8e-05
298.15 K, c1 = 0.001316 | 0.00743 ± 0.00015
298.15 K, c1 = 0.001961 | 0.0108 ± 0.00022
298.15 K, c1 = 0.002597 | 0.0141 ± 0.00028
298.15 K, c1 = 0.003226 | 0.0172 ± 0.00034
298.15 K, c1 = 0.003846 | 0.0202 ± 0.0004
298.15 K, c1 = 0.004458 | 0.0231 ± 0.00046
298.15 K, c1 = 0.005063 | 0.0259 ± 0.00052
298.15 K, c1 = 0.00566 | 0.0286 ± 0.00057
298.15 K, c1 = 0.00625 | 0.0313 ± 0.00063
298.15 K, c1 = 0.006832 | 0.0329 ± 0.00066
298.15 K, c1 = 0.007407 | 0.0339 ± 0.00068
298.15 K, c1 = 0.007975 | 0.0348 ± 0.0007
298.15 K, c1 = 0.008536 | 0.0356 ± 0.00071
298.15 K, c1 = 0.00942 | 0.0366 ± 0.00073
298.15 K, c1 = 0.01029 | 0.0376 ± 0.00075
298.15 K, c1 = 0.01114 | 0.0386 ± 0.00077
298.15 K, c1 = 0.01218 | 0.0397 ± 0.00079
298.15 K, c1 = 0.01319 | 0.0409 ± 0.00082
298.15 K, c1 = 0.01419 | 0.042 ± 0.00084
298.15 K, c1 = 0.01516 | 0.0431 ± 0.00086
303.15 K, c1 = 0.000662 | 0.00431 ± 9e-05
303.15 K, c1 = 0.001316 | 0.00815 ± 0.00016
303.15 K, c1 = 0.001961 | 0.0119 ± 0.00024
303.15 K, c1 = 0.002597 | 0.0154 ± 0.00031
303.15 K, c1 = 0.003226 | 0.0189 ± 0.00038
303.15 K, c1 = 0.003846 | 0.0222 ± 0.00044
303.15 K, c1 = 0.004458 | 0.0254 ± 0.00051
303.15 K, c1 = 0.005063 | 0.0285 ± 0.00057
303.15 K, c1 = 0.00566 | 0.0314 ± 0.00063
303.15 K, c1 = 0.00625 | 0.0344 ± 0.00069
303.15 K, c1 = 0.006832 | 0.0365 ± 0.00073
303.15 K, c1 = 0.007407 | 0.038 ± 0.00076
303.15 K, c1 = 0.007975 | 0.0389 ± 0.00078
303.15 K, c1 = 0.008536 | 0.0398 ± 0.0008
303.15 K, c1 = 0.00942 | 0.0409 ± 0.00082
303.15 K, c1 = 0.01029 | 0.042 ± 0.00084
303.15 K, c1 = 0.01114 | 0.0431 ± 0.00086
303.15 K, c1 = 0.01218 | 0.0444 ± 0.00089
303.15 K, c1 = 0.01319 | 0.0457 ± 0.00091
303.15 K, c1 = 0.01419 | 0.047 ± 0.00094
303.15 K, c1 = 0.01516 | 0.0483 ± 0.00097
308.15 K, c1 = 0.000744 | 0.00544 ± 0.00011
308.15 K, c1 = 0.001478 | 0.0102 ± 0.0002
308.15 K, c1 = 0.0022 | 0.0148 ± 0.0003
308.15 K, c1 = 0.002913 | 0.0193 ± 0.00039
308.15 K, c1 = 0.003614 | 0.0234 ± 0.00047
308.15 K, c1 = 0.004306 | 0.0275 ± 0.00055
308.15 K, c1 = 0.004988 | 0.0316 ± 0.00063
308.15 K, c1 = 0.00566 | 0.0354 ± 0.00071
308.15 K, c1 = 0.006323 | 0.0391 ± 0.00078
308.15 K, c1 = 0.006977 | 0.0419 ± 0.00084
308.15 K, c1 = 0.007621 | 0.0433 ± 0.00087
308.15 K, c1 = 0.008467 | 0.0448 ± 0.0009
308.15 K, c1 = 0.009297 | 0.0462 ± 0.00092
308.15 K, c1 = 0.01011 | 0.0475 ± 0.00095
308.15 K, c1 = 0.01111 | 0.049 ± 0.00098
308.15 K, c1 = 0.01228 | 0.0508 ± 0.001
308.15 K, c1 = 0.01361 | 0.0527 ± 0.001
308.15 K, c1 = 0.01489 | 0.0545 ± 0.0011
308.15 K, c1 = 0.01632 | 0.0565 ± 0.0011
313.15 K, c1 = 0.000662 | 0.00523 ± 0.0001
313.15 K, c1 = 0.001316 | 0.0101 ± 0.0002
313.15 K, c1 = 0.001961 | 0.0146 ± 0.00029
313.15 K, c1 = 0.002597 | 0.0189 ± 0.00038
313.15 K, c1 = 0.003226 | 0.0231 ± 0.00046
313.15 K, c1 = 0.003846 | 0.0272 ± 0.00054
313.15 K, c1 = 0.004458 | 0.0312 ± 0.00062
313.15 K, c1 = 0.005063 | 0.0351 ± 0.0007
313.15 K, c1 = 0.00566 | 0.0388 ± 0.00078
313.15 K, c1 = 0.00625 | 0.0422 ± 0.00084
313.15 K, c1 = 0.006832 | 0.0455 ± 0.00091
313.15 K, c1 = 0.007407 | 0.047 ± 0.00094
313.15 K, c1 = 0.007975 | 0.0482 ± 0.00096
313.15 K, c1 = 0.008536 | 0.0493 ± 0.00099
313.15 K, c1 = 0.00942 | 0.0508 ± 0.001
313.15 K, c1 = 0.01029 | 0.0523 ± 0.001
313.15 K, c1 = 0.01114 | 0.0537 ± 0.0011
313.15 K, c1 = 0.01218 | 0.0554 ± 0.0011
313.15 K, c1 = 0.01319 | 0.0571 ± 0.0011
313.15 K, c1 = 0.01419 | 0.0587 ± 0.0012
313.15 K, c1 = 0.01516 | 0.0603 ± 0.0012
318.15 K, c1 = 0.000744 | 0.00628 ± 0.00013
318.15 K, c1 = 0.001478 | 0.0121 ± 0.00024
318.15 K, c1 = 0.0022 | 0.0177 ± 0.00035
318.15 K, c1 = 0.002913 | 0.023 ± 0.00046
318.15 K, c1 = 0.003614 | 0.028 ± 0.00056
318.15 K, c1 = 0.004306 | 0.033 ± 0.00066
318.15 K, c1 = 0.004988 | 0.0379 ± 0.00076
318.15 K, c1 = 0.00566 | 0.0424 ± 0.00085
318.15 K, c1 = 0.006323 | 0.0468 ± 0.00094
318.15 K, c1 = 0.006977 | 0.0504 ± 0.001
318.15 K, c1 = 0.007621 | 0.0534 ± 0.0011
318.15 K, c1 = 0.008257 | 0.0548 ± 0.0011
318.15 K, c1 = 0.009091 | 0.0566 ± 0.0011
318.15 K, c1 = 0.00991 | 0.0583 ± 0.0012
318.15 K, c1 = 0.01091 | 0.0602 ± 0.0012
318.15 K, c1 = 0.01209 | 0.0624 ± 0.0013
318.15 K, c1 = 0.01342 | 0.0646 ± 0.0013
318.15 K, c1 = 0.01471 | 0.0667 ± 0.0013
318.15 K, c1 = 0.01614 | 0.0692 ± 0.0014
